# Experimental data as given in patent publication US7473708B2, “Agents with leukotriene B4-like antiviral (enveloped RNA) activities” (priority 1996, dated 2009).
# Columns and labels:
# [1] = tested on: EBV; experiment: Detection of Epstein-Barr Nuclear Antigen (EBNA) in EBV-infected PBMC (ACIF test); type: cell-based, human; conditions: 100 nM LTB4, added days 0, 3, 6, 9; ten days of culture
# Procedure: After ten days of culture, cells were harvested for determination of the presence of Epstein-Barr Nuclear Antigen (EBNA), a consequence of EBV infection. Preparation of cell smears, fixation and detection of EBNA by the anti-complement immunofluorescence (ACIF) test were carried out as described by Reedman B. M. and Klein G. (Int. J. Cancer, 1973, 11:499). Smears were prepared by spreading 50 μl of a concentrated suspension of washed cells (2×10^6/ml) on clean slides, air dried and fixed in cold acetone (−20° C.) during 10 minutes. Human serum (50 μl) from EBV seropositive donor was used as a source of complement. Slides were incubated at room temperature in a humid chamber during 45 minutes. Slides were then washed three times in phosphate buffer saline (PBS) and stained with 50 μl of fluorescein-5-isothiocyanate (FITC “Isomer I”)-conjugated goat IgG fraction anti-human complement C3 (Cappel Research Products, Durham, N.C.) during 60 minutes at room temperature in a humid chamber. Slides were washed in PBS (3 times), mounted in PBS:glycerol 1:1 and examined. Raji and U937 cells were used as positive and negative controls, respectively. The percentage of EBNA-positive cells was decreased by more than 55% with 30 nM LTB4, and by more than 70% with 100 nM LTB4 (FIG. 2). The results illustrated in FIG. 2 are representative of six (6) other experiments.
# PBMC were infected with EBV and HSV-1 and treated or not with 100 nM of analogs of LTB4 such as 20-OH-LTB4, LTA3 methyl ester, 12(R)-HETE and 5(S), 15(S)-diHETE. After six days of culture, the presence of EBNA antigen (a consequence of EBV infection) was evaluated by the ACIF test, as described in Example I. Similarly, the presence of HSV-1 antigen in PBMC was evaluated by immunofluorescence using an antiserum obtained from a chronically infected donor as described above in section entitled “Detection of Specific HSV-1 Antigen”. […] The results illustrated in Table 1 are representative of three other experiments.
# [2] = tested on: HIV-1IIIB; experiment: Reverse transcriptase activity in HIV-1-infected PBMC; type: cell-based, human; conditions: LTB4 in culture media (100 nM elsewhere in the source), two weeks of culture
# Procedure: PBMC were resuspended at a density of 10^6 cells/ml in culture medium (RPMI-1640 supplemented with 10% FBS), and cultured in the presence of 3 μg/ml PHA-P (Sigma, St.Louis, Mo.) and 30 U/ml of recombinant human IL-2 for 2 to 3 days at 37° C. under a 5% CO2 atmosphere. PHA-stimulated PBMC were resuspended at 1×10^6 cells/ml and were infected with HIV-1IIIB (various multiplicity of infection: number of infectious virus particles/target cell) in the absence or the presence of increasing concentrations of LTB4 (0, 30, 100, and 200 nM). The culture media were changed twice a week and appropriate amounts of LTB4 were added at every medium change. […] Virus replication was monitored either by reverse transcriptase or p24 assays. […]
# Enzymatic activity was measured with 50 μl of cell-free supernatant to which 10 μl of a solution A (5 mM dithiothreitol, 50 mM KCl, 0.05% Triton X-100) and 40 μl of a solution B (5 mM MgCl2, […], 0.04 mg of poly(rA)-oligo(dT)12-18, […] [^3H]TTP (40 to 70 Ci/mmol) had been added. After incubation for 1 hour at 37° C., samples were precipitated with one volume of a solution containing 0.15% pyrophosphate and 1.66% trichloroacetic acid prior filtration onto glass fiber filters by using a cell harvester system. The filters were dried and radioactivity was measured in a liquid scintillation counter (1205/1204 BS Beta-plate; Wallac Oy, Turku, Finland). […]
# [3] = tested on: HIV (93US151); experiment: HIV infection in vivo, SCID mice reconstituted with human PBMC
# [4] = tested on: murine CMV (Smith strain); experiment: CMV viral load in infected mice (plaque assay)
# Procedure: Six week old BALB/c mice were infected by intravenous injection with 10^4 plaque forming units (PFU) of murine CMV (Smith strain). Mice were divided into two groups: the first group received a placebo while the second group was treated with 25 ng of LTB4, administered intravenously once a day starting on the day of infection. After 12 days of treatment, mice were sacrificed and the lungs and salivary glands harvested. The organs were homogenized, in 0.5 ml of culture medium, to liberate intracellular viral particles. After centrifugation, the cell free supernatants were tested for the presence of CMV particles by standard plaque assay technique. Briefly, serially diluted supernatants were added to a monolayer of mouse embryonic fibroblast cells (highly susceptible to CMV infection) for 1 hour at 37° C. after which the nonadsorbed virus were removed and the monolayer overlaid with 1.5% methylcellulose. After a 5-day incubation, the monolayers were fixed with formaldehyde and stained with violet crystal. The number of plaques, which represents areas of infection equivalent to one viral particle, were counted and the CMV titers in the lungs and salivary glands determined.
# [5] = tested on: EBV; experiment: EBV-induced tumor formation in SCID mice given human PBL
# [6] = 25 ng LTB4 i.v. once a day, 12 days
# [7] = EBV-infected, LTB4 i.p. 10 then 5 μg/mouse, day 42
smiles,measurement,setting,value
"CCCCC/C=C\C[C@@H](O)/C=C/C=C/C=C\[C@@H](O)CCCC(=O)O [LTB4, 5S,12R-dihydroxy-6,8,10,14 (Z,E,E,Z)-eicosatetraenoic acid]",decrease of percentage of EBNA-positive cells,[1],more than 70%
same,reduction of reverse transcriptase (viral) activity,[2],more than 70%
same,percentage of CD4+ T cell survival versus placebo,"[3]; LTB4 1, 10 or 100 ng/mouse i.p. once a day, day 14 P.I.",significantly increased
same,HIV plasma viral loads versus placebo,"[3]; LTB4 i.p. once a day, days 7 and 14 P.I.",reduced
same,reduction in the CMV viral load in the lungs versus placebo,[4]; [6],77%
same,reduction in the CMV viral load in the salivary glands versus placebo,[4]; [6],70%
same,CMV viral load versus placebo,[4]; infected mice,reduced
same,Splenomegaly: Enlarged (mice affected / mice in group),[5]; [7],6/9
same,Splenomegaly: Normal (mice affected / mice in group),[5]; [7],1/9
same,Splenomegaly: Very enlarged (mice affected / mice in group),[5]; [7],2/9
same,Tumor size 800-1500 mm^3 (mice affected / mice in group),[5]; [7],3/9
same,Tumor size <800 mm^3 (mice affected / mice in group),[5]; [7],6/9
same,Tumor size >1500 mm^3 (mice affected / mice in group),[5]; [7],0/9
same,tumor growth induced by EBV,"[5]; SCID mice, 42 days",reduces tumor growth induced by EBV
same,behaviour and survival of uninfected mice treated with LTB4 alone,"[5]; uninfected SCID mice, LTB4 i.p., 42-day period",behaved normally and survived throughout the 42-day period
